In patent US8871753B2, “Macrocyclic compounds and their use as kinase inhibitors” (Incyte Corporation, priority 2008, dated 2014):

Columns and labels:
Assay type in all cases: biochemical
[1] = molecular target: T1, human JAK3 (a.a. 781-1124) (Homo sapiens, UniProt P52333); test: In vitro JAK kinase assay (HTRF, phosphorylation of a biotinylated peptide), JAK3; conditions: method AA1 (3 μM ATP) or AA2 (1000 μM ATP), not stated per value
T1 construct: JAK3 (a.a. 781-1124); His tag (N); made in house; host or cells: insect cells (baculovirus)
Summary of the method: (§1)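 Kinase reactions ran at room temperature for 1 h with ATP matched per isoform (JAK1 90 μM, JAK2 30 μM, JAK3 3 μM). After an EDTA stop, the phosphorylated biotin-peptide was read by HTRF using Eu-Py20 and SA-APC after 40 min binding.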

[2] = molecular target: T2, human JAK1 (a.a. 837-1142) (Homo sapiens, UniProt P23458); test: In vitro JAK kinase assay (HTRF, phosphorylation of a biotinylated peptide), JAK1; conditions: method AA1 (90 μM ATP) or AA2 (1000 μM ATP), not stated per value; read-out: JAK1 IC50
T2 construct: human JAK1 (a.a. 837-1142); His tag (N); made in house; host or cells: insect cells (baculovirus)
Summary of the method: as §1

[3] = molecular target: T3, Recombinant Human Anaplastic Lymphoma Kinase (Homo sapiens, UniProt Q9UM73); test: ALK HTRF kinase assay; conditions: compound at 500 nM or 1 mM; 90 μM ATP
T3 construct: purchased Invitrogen, Carlsbad, Calif
Summary of the method: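 TR-FRET read-out (Eu anti-pTyr antibody + streptavidin-APC) of biotin-peptide phosphorylation by recombinant human enzyme; IC50 by sigmoidal fit with top/bottom baselines and Hill slope.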

TYK2 = TYK2 (Homo sapiens, UniProt P29597); test: TYK2 kinase inhibition (Table A1)
[4] = molecular target: T4, human JAK2 (a.a. 828-1132) (Homo sapiens, UniProt O60674); test: In vitro JAK kinase assay (HTRF, phosphorylation of a biotinylated peptide), JAK2; conditions: method AA1 (30 μM ATP) or AA2 (1000 μM ATP), not stated per value
T4 construct: JAK2 (a.a. 828-1132); His tag (N); made in house; host or cells: insect cells (baculovirus)
Summary of the method: as §1

T3 sequence (Q9UM73 19-1620): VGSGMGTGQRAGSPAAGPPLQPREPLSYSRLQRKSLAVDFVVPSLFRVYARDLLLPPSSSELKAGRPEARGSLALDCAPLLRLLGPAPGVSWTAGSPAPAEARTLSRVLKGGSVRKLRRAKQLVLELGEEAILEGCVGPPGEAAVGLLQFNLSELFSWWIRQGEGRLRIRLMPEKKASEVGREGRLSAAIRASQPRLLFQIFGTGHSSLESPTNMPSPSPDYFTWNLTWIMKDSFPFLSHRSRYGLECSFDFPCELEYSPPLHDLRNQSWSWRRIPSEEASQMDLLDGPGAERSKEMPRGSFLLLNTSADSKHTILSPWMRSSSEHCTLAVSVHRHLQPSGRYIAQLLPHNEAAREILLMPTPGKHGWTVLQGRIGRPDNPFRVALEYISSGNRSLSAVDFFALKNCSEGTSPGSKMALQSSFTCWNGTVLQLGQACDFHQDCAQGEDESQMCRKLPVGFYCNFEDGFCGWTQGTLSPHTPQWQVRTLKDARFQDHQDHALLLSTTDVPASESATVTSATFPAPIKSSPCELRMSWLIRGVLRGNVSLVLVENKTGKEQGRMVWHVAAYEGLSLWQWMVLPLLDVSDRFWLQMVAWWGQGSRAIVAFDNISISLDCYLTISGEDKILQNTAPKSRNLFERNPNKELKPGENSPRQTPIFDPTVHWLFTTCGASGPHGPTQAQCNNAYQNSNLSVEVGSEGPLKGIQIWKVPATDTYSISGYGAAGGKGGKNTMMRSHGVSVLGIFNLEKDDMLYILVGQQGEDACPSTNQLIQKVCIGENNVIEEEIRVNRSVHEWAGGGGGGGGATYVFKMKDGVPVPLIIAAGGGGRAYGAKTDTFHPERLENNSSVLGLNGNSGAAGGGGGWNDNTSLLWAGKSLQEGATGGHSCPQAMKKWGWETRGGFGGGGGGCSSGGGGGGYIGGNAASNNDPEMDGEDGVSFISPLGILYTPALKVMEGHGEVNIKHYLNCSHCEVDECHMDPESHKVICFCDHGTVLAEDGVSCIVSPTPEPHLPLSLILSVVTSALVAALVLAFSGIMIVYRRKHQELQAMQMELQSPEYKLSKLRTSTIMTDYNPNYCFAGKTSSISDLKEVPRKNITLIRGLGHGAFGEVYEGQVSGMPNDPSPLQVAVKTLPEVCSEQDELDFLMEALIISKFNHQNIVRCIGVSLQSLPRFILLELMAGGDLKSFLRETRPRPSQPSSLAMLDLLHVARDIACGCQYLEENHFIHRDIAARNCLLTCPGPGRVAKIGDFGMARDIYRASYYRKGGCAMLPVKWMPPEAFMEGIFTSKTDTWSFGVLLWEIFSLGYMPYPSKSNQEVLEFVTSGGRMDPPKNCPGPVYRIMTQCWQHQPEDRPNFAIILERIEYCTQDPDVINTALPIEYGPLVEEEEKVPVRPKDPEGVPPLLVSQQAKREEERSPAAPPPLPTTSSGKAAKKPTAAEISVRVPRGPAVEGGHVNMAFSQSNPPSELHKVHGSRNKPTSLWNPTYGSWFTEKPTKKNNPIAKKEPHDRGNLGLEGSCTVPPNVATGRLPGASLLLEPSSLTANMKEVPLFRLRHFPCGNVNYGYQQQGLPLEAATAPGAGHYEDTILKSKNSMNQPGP
Sequence of TYK2 (P29597 whole entry): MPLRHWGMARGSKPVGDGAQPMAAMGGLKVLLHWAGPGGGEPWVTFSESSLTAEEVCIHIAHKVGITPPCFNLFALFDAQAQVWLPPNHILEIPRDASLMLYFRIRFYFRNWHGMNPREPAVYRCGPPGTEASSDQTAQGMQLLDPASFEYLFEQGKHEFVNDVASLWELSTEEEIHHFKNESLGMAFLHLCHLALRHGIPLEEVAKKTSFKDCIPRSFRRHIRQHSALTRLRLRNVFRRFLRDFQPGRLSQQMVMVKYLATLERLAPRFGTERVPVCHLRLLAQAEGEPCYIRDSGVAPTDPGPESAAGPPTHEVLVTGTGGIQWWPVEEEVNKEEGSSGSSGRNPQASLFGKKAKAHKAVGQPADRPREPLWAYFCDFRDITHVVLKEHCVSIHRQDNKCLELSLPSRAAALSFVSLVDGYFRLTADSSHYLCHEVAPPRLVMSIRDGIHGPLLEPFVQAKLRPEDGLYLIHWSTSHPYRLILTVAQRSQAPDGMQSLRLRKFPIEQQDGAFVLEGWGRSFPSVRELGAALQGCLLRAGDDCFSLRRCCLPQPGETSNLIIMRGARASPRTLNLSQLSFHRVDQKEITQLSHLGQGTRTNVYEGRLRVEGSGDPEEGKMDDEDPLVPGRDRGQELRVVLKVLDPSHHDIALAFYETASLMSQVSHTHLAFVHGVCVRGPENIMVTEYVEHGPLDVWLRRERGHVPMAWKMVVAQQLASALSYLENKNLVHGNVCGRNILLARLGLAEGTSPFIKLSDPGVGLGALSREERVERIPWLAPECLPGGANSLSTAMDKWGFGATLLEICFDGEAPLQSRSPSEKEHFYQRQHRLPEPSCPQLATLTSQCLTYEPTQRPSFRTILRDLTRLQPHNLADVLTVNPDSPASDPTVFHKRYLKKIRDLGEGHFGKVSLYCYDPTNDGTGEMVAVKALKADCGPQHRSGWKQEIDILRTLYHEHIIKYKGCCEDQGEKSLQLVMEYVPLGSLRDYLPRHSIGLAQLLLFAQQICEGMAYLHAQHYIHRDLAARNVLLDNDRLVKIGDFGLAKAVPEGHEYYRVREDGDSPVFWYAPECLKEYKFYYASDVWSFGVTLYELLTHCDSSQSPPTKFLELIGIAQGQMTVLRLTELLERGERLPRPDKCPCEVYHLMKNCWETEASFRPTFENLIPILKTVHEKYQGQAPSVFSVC
T1 sequence (P52333 781-1124): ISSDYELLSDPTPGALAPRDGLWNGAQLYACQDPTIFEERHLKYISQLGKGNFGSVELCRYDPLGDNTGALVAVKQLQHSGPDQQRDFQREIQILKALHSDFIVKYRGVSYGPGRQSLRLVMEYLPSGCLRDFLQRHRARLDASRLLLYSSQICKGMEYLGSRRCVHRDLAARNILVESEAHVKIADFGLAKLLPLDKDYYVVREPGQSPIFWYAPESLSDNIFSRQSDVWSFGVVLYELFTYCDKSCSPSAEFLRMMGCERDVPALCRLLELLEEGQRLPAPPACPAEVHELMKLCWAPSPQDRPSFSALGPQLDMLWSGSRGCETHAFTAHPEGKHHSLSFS
T2 sequence (P23458 849-1154): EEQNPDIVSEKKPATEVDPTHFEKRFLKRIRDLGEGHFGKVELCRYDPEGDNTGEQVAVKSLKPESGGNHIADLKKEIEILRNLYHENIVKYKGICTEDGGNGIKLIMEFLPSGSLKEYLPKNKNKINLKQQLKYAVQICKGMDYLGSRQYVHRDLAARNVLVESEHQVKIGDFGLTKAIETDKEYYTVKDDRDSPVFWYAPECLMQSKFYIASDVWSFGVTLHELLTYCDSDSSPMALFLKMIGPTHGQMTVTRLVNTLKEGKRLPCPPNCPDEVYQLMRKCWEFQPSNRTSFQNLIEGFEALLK
T4 sequence (O60674 828-1132): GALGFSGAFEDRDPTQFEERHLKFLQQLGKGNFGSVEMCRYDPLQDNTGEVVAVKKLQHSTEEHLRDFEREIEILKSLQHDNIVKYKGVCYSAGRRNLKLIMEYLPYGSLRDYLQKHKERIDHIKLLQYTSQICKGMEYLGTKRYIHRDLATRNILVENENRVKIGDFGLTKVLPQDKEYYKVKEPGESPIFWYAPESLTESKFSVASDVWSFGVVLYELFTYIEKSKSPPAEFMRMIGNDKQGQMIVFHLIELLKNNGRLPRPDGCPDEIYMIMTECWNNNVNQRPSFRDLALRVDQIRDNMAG

Row | IC50 [1] [nM] | IC50 [2] [nM] | ALK % of inhibition at a concentration of 500 nM or 1 mM [3] [%] | IC50 (TYK2) [nM] | IC50 [4] [nM] | SMILES
1 | > 100 | 0.3 | 45 | 3.8 | 1.4 | Cc1ccc(NC(=O)N2CCC(CC(=O)Nc3ccc4cc3CCc3cncc(c3)Nc3ncc(Cl)c(n3)N4)CC2)cc1 [Example A151, 4-(2-{[6-Chloro-2,4,8,18,22-pentaazatetracyclo[14.3.1.1(3,7).1(9,13)]docosa-1(20),3(22),4,6,9(21),10,12,16,18-nonaen-12-yl]amino}-2-oxoethyl)-N-(4-methylphenyl)piperidine-1-carboxamide bis(trifluoroacetate)]
2 | > 100 | 0.4 | 37 | 2.4 | 2.4 | COc1ccccc1NC(=O)N1CCC(CC(=O)Nc2ccc3cc2CCc2cncc(c2)Nc2ncc(Cl)c(n2)N3)CC1 [Example A152, 4-(2-{[6-Chloro-2,4,8,18,22-pentaazatetracyclo[14.3.1.1(3,7).1(9,13)]docosa-1(20),3(22),4,6,9(21),10,12,16,18-nonaen-12-yl]amino}-2-oxoethyl)-N-(2-methoxyphenyl)piperidine-1-carboxamide bis(trifluoroacetate)]
3 | > 100 | 0.5 | 52 | 5.7 | 1.1 | COc1cccc(NC(=O)N2CCC(CC(=O)Nc3ccc4cc3CCc3cncc(c3)Nc3ncc(Cl)c(n3)N4)CC2)c1 [Example A153, 4-(2-{[6-chloro-2,4,8,18,22-pentaazatetracyclo[14.3.1.1(3,7).1(9,13)]docosa-1(20),3(22),4,6,9(21),10,12,16,18-nonaen-12-yl]amino}-2-oxoethyl)-N-(3-methoxyphenyl)piperidine-1-carboxamide bis(trifluoroacetate)]
4 | > 100 | 0.6 | 51 | 3.1 | 2.6 | COc1ccc(NC(=O)N2CCC(CC(=O)Nc3ccc4cc3CCc3cncc(c3)Nc3ncc(Cl)c(n3)N4)CC2)cc1 [Example A154, 4-(2-{[6-Chloro-2,4,8,18,22-pentaazatetracyclo[14.3.1.1(3,7).1(9,13)]docosa-1(20),3(22),4,6,9(21),10,12,16,18-nonaen-12-yl]amino}-2-oxoethyl)-N-(4-methoxyphenyl)piperidine-1-carboxamide bis(trifluoroacetate)]
5 | > 100 | 2.4 | 47 | 3.8 | 4.2 | O=C(CC1CCN(C(=O)NCc2ccccc2)CC1)Nc1ccc2cc1CCc1cncc(c1)Nc1ncc(Cl)c(n1)N2 [Example A155, N-Benzyl-4-(2-{[6-chloro-2,4,8,18,22-pentaazatetracyclo[14.3.1.1(3,7).1(9,13)]docosa-1(20),3(22),4,6,9(21),10,12,16,18-nonaen-12-yl]amino}-2-oxoethyl)piperidine-1-carboxamide bis(trifluoroacetate)]
6 | > 10000 | 96 | 17 | 2500 | 917 | Cc1noc(C)c1C(=O)N1CCC(CC(=O)Nc2ccc3cc2CCc2cncc(c2)Nc2ncc(Cl)c(n2)N3)CC1 [Example A156, N-[6-Chloro-2,4,8,18,22-pentaazatetracyclo[14.3.1.1(3,7).1(9,13)]docosa-1(20),3(22),4,6,9(21),10,12,16,18-nonaen-12-yl]-2-{1-[(3,5-dimethylisoxazol-4-yl)carbonyl]piperidin-4-yl}acetamide bis(trifluoroacetate)]
7 | > 10000 | 2.6 | 15 | 617 | 102 | O=C(CC1CCN(c2nc3ccccc3s2)CC1)Nc1ccc2cc1CCc1cncc(c1)Nc1ncc(Cl)c(n1)N2 [Example A157, 2-[1-(1,3-Benzothiazol-2-yl)piperidin-4-yl]-N-[6-chloro-2,4,8,18,22-pentaazatetracyclo[14.3.1.1(3,7).1(9,13)]docosa-1(20),3(22),4,6,9(21),10,12,16,18-nonaen-12-yl]acetamide tris(trifluoroacetate)]
8 | > 10000 | 11 | 18 | 675 | 244 | O=C(CC1CCN(c2nc3cccnc3o2)CC1)Nc1ccc2cc1CCc1cncc(c1)Nc1ncc(Cl)c(n1)N2 [Example A158, N-[6-Chloro-2,4,8,18,22-pentaazatetracyclo[14.3.1.1(3,7).1(9,13)]docosa-1(20),3(22),4,6,9(21),10,12,16,18-nonaen-12-yl]-2-(1-[1,3]oxazolo[5,4-b]pyridin-2-ylpiperidin-4-yl)acetamide tris(trifluoroacetate)]
9 | > 100 | 0.5 | 29 | 3 | 36 | Cc1cc(C(=O)N2CCC(CC(=O)Nc3ccc4cc3CCc3cncc(c3)Nc3ncc(Cl)c(n3)N4)CC2)n[nH]1 [Example A163, N-[6-Chloro-2,4,8,18,22-pentaazatetracyclo[14.3.1.1(3,7).1(9,13)]docosa-1(20),3(22),4,6,9(21),10,12,16,18-nonaen-12-yl]-2-{1-[(5-methyl-1H-pyrazol-3-yl)carbonyl]piperidin-4-yl}acetamide bis(trifluoroacetate)]
10 | > 1000 | 26 | 23 | 319 | 131 | O=C(CC1CCN(c2ncc(F)cn2)CC1)Nc1ccc2cc1CCc1cncc(c1)Nc1ncc(Cl)c(n1)N2 [Example A169, N-[6-Chloro-2,4,8,18,22-pentaazatetracyclo[14.3.1.1(3,7).1(9,13)]docosa-1(20),3(22),4,6,9(21),10,12,16,18-nonaen-12-yl]-2-[1-(5-fluoropyrimidin-2-yl)piperidin-4-yl]acetamide tris(trifluoroacetate)]
11 | > 1000 | 7.8 | 37 | 250 | 165 | O=C(CC1CCN(c2ccccn2)CC1)Nc1ccc2cc1CCc1cncc(c1)Nc1ncc(Cl)c(n1)N2 [Example A170, N-[6-Chloro-2,4,8,18,22-pentaazatetracyclo[14.3.1.1(3,7).1(9,13)]docosa-1(20),3(22),4,6,9(21),10,12,16,18-nonaen-12-yl]-2-(1-pyridin-2-ylpiperidin-4-yl)acetamide tris(trifluoroacetate)]
12 | > 1000 | 12 | 29 | 300 | 118 | O=C(CC1CCN(c2cnccn2)CC1)Nc1ccc2cc1CCc1cncc(c1)Nc1ncc(Cl)c(n1)N2 [Example A171, N-[6-Chloro-2,4,8,18,22-pentaazatetracyclo[14.3.1.1(3,7).1(9,13)]docosa-1(20),3(22),4,6,9(21),10,12,16,18-nonaen-12-yl]-2-(1-pyrazin-2-ylpiperidin-4-yl)acetamide tris(trifluoroacetate)]
